How the values were obtained:
Format in all cases: cell-based
human TLR8 = biological target: T1, human TLR8 (Homo sapiens, UniProt Q9NR97); experiment: TLR8 inhibition reporter assay (HEK-Blue cells, SEAP reporter, R848 stimulation); conditions: HEK-Blue cells overexpressing human TLR8, SEAP reporter, R848 15.9 μM
T1 construct: host or cells: HEK-Blue cells (HEK293-derived reporter line)
T1 sequence (Q9NR97 27-1041): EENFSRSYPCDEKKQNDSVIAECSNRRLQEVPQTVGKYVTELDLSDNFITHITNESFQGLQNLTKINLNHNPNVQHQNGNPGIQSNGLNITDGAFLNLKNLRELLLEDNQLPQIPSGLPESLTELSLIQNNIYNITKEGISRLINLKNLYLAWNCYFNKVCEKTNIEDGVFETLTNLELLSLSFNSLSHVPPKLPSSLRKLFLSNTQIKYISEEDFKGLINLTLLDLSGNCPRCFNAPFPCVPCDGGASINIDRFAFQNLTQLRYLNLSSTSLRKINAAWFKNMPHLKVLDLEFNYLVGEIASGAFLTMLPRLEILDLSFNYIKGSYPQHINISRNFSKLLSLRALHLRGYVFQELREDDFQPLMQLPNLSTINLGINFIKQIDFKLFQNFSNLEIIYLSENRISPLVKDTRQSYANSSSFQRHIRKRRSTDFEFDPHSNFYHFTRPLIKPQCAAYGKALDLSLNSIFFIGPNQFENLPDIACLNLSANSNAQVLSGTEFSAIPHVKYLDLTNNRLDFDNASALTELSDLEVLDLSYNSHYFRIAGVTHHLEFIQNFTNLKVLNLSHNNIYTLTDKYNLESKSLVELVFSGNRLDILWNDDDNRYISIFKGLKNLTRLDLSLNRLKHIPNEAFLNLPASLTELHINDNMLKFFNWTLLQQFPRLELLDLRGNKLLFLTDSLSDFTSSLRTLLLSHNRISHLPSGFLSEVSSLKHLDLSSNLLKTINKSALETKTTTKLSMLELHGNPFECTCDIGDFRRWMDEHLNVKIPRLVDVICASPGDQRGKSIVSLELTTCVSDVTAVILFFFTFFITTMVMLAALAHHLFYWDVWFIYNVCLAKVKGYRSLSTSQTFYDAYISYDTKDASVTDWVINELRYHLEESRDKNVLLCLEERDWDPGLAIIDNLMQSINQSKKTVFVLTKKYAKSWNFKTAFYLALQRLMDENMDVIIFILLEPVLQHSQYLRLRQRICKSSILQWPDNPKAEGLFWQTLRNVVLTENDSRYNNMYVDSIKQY
Procedure, shortened: (§1)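 Read-out is SEAP activity in HEK-Blue detection medium after 22 h at 37 °C, converted to percent inhibition against agonist-plus-DMSO and reference-inhibitor controls. Cells saw compound (0.05 nM–50 μM, 30 min, room temperature) before gardiquimod 7.5 μM, R848 15.9 μM or ODN2006 5 nM for TLR7, TLR8 and TLR9, respectively.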

human TLR7 = biological target: T2, human TLR7 (Homo sapiens, UniProt Q9NYK1); experiment: TLR7 inhibition reporter assay (HEK-Blue cells, SEAP reporter, gardiquimod stimulation); conditions: HEK-Blue cells overexpressing human TLR7, SEAP reporter, gardiquimod 7.5 μM
T2 construct: host or cells: HEK-Blue cells (HEK293-derived reporter line)
T2 sequence (Q9NYK1 27-1049): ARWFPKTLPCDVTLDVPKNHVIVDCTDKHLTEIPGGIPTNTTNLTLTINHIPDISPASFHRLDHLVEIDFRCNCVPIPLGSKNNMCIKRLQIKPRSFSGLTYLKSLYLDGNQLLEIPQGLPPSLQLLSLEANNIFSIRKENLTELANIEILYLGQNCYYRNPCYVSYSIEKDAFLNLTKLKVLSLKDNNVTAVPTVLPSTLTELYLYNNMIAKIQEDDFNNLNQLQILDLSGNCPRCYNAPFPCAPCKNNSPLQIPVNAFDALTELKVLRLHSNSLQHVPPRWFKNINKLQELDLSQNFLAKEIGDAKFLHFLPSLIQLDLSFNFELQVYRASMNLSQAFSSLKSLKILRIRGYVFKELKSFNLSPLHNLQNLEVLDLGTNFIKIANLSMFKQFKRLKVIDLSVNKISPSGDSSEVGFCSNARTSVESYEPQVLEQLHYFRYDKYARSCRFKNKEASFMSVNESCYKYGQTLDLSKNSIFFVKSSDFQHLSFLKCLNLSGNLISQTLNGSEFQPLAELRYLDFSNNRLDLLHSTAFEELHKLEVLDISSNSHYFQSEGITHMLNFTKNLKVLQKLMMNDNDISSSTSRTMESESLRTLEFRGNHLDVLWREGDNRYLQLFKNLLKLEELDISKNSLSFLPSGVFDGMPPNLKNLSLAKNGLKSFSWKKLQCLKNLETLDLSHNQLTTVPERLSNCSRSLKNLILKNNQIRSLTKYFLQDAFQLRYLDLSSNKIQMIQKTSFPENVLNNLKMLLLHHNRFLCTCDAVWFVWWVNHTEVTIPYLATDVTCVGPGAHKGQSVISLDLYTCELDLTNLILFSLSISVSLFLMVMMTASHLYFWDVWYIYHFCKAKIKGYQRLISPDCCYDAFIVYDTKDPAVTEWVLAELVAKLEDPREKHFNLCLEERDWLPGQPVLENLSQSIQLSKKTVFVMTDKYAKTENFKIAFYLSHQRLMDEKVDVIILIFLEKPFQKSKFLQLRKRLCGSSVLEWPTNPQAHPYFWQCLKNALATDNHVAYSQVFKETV
Procedure, shortened: as §1

human TLR9 = biological target: T3, human TLR9 (Homo sapiens, UniProt Q9NR96); experiment: TLR9 inhibition reporter assay (HEK-Blue cells, SEAP reporter, ODN2006 stimulation); conditions: HEK-Blue cells overexpressing human TLR9, SEAP reporter, ODN2006 5 nM
T3 construct: host or cells: HEK-Blue cells (HEK293-derived reporter line)
T3 sequence (Q9NR96 26-1032): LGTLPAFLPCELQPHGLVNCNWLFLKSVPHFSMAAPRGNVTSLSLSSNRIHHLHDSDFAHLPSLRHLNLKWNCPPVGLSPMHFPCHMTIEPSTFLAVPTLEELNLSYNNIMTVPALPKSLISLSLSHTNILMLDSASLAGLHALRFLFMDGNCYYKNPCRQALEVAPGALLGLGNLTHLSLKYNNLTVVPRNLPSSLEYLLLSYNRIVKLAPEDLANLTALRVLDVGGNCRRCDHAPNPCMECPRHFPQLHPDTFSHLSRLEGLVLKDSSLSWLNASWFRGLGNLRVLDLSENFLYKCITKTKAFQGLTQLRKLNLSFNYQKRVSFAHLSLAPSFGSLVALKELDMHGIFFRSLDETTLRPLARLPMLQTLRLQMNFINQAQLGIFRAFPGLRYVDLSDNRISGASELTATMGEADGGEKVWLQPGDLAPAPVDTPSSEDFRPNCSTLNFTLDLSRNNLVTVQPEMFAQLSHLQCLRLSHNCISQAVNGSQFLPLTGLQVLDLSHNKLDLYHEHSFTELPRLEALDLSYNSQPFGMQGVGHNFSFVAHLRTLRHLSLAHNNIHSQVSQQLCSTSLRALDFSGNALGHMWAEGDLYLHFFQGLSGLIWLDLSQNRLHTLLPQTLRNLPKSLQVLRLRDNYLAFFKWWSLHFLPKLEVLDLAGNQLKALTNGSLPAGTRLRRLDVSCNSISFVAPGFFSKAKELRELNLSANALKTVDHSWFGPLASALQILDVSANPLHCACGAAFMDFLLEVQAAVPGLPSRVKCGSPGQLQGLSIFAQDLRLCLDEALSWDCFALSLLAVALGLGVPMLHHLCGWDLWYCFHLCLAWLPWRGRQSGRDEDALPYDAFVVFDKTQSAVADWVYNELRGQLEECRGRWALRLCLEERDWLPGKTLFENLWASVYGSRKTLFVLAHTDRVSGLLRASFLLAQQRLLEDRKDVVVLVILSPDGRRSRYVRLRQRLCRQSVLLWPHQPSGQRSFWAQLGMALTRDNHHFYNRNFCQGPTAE
Procedure, shortened: as §1

SMILES	IC50 (human TLR8) [nM]	IC50 (human TLR7) [nM]	IC50 (human TLR9) [nM]
CNC(=O)c1cn2cc(-c3[nH]c4ccc(C5CCN(C(=O)CN(C)C)CC5)cc4c3C(C)C)cc(C)c2n1 [Example 495, 6-(5-(1-(dimethylglycyl)piperidin-4-yl)-3-isopropyl-1H-indol-2-yl)-N,8-dimethylimidazo[1,2-a] pyridine-2-carboxamide]	< 100	< 100	100 to 1000
Cc1cc(-c2[nH]c3ccc(C4CCN(CC(N)=O)CC4)cc3c2C(C)C)cc2cnnn12 [Example 321, 2-(4-(3-isopropyl-2-(7-methyl-[1,2,3]triazolo[1,5-a]pyridin-5-yl)-1H-indol-5-yl)piperidin-1-yl)acetamide]	< 100	< 100	1000 to 50000
CNC(=O)c1cnn2c(C)cc(-c3[nH]c4ccc(C5CCNCC5)cc4c3C(C)C)cc12 [Example 274, 5-(3-isopropyl-5-(piperidin-4-yl)-1H-indol-2-yl)-N,7-dimethylpyrazolo[1,5-a]pyridine-3-carboxamide]	> 3130	100 to 1000	1000 to 50000
Cc1cc(-c2[nH]c3ccc(C4CCN(C5COC5)CC4)cc3c2C(C)C)cn2nncc12 [Example 737, 6-(3-isopropyl-5-(1-(oxetan-3-yl)piperidin-4-yl)-1H-indol-2-yl)-4-methyl-[1,2,3]triazolo[1,5-a]pyridine]	1000 to 50000	1000 to 50000	1000 to 50000
CC(C)c1c(-c2cnc3ccnn3c2)[nH]c2ccc(C3CCN(C(=O)C[C@H](C)O)CC3)cc12 [Example 595, (S)-3-hydroxy-1-(4-(3-isopropyl-2-(pyrazolo[1,5-a]pyrimidin-6-yl)-1H-indol-5-yl)piperidin-1-yl)butan-1-one]	> 3130	> 3130	> 50000
Cc1cc(-c2[nH]c3ccc(C4CCN(Cc5ncn(C)n5)CC4)cc3c2C(C)C)cn2nnnc12 [Example 885, 6-(3-isopropyl-5-(1-((1-methyl-1H-1,2,4-triazol-3-yl)methyl)piperidin-4-yl)-1H-indol-2-yl)-8-methyltetrazolo[1,5-a]pyridine]	< 100	< 100	1000 to 50000
Cc1cc(-c2[nH]c3ccc(C4CCN(C5CCOCC5)CC4)cc3c2C(C)C)nn2ncnc12 [Example 686, 6-(3-isopropyl-5-(1-(tetrahydro-2H-pyran-4-yl)piperidin-4-yl)-1H-indol-2-yl)-8-methyl-[1,2,4]triazolo[1,5-b]pyridazine]	< 100	< 100	1000 to 50000
CC(C)c1c(-c2cn(C)c3c(=O)n(C)ccc23)[nH]c2ccc(C3CCN(CC(=O)N(C)C)CC3)cc12 [Example 297, 2-(4-(2-(1,6-dimethyl-7-oxo-6,7-dihydro-1H-pyrrolo[2,3-c]pyridin-3-yl)-3-isopropyl-1H-indol-5-yl)piperidin-1-yl)-N,N-dimethylacetamide]	< 100	< 100	1000 to 50000
CC(C)c1c(-c2cccn3ncnc23)[nH]c2ccc(C3CCN(CC(=O)N(C)C)CC3)cc12 [Example 362, 2-(4-(2-5 ([1,2,4]triazolo[1,5-a]pyridin-8-yl)-3-isopropyl-1H-indol-5-yl)piperidin-1-yl)-N,N-dimethylacetamide]	100 to 1000	100 to 1000	1000 to 50000
CNCC(=O)N1CCC(c2ccc3[nH]c(-c4cc(OC)c5nccn5c4)c(C(C)C)c3c2)CC1 [Example 559, 1-(4-(3-isopropyl-2-(8-methoxyimidazo[1,2-a]pyridin-6-yl)-1H-indol-5-yl)piperidin-1-yl)-2-(methylamino)ethan-1-one]	< 100	< 100	100 to 1000
CC(C)c1c(-c2ccnc3[nH]ncc23)[nH]c2ccc(C3CCN(CCCN(C)C)CC3)cc12 [Example 845, 3-(4-(3-isopropyl-2-(1H-pyrazolo[3,4-b]pyridin-4-yl)-1H-indol-5-yl)piperidin-1-yl)-N,N-dimethylpropan-1-amine]	100 to 1000	100 to 1000	100 to 1000
Cc1cnc2[nH]ccc2c1-c1[nH]c2ccc(C3CCNCC3)cc2c1C(C)C [Example 247, 4-(3-isopropyl-5-(piperidin-4-yl)-1H-indol-2-yl)-5-methyl-1H-pyrrolo[2,3-b]pyridine]	< 100	< 100	1000 to 50000
COc1cc(-c2[nH]c3ccc(C4CCN(CC(=O)N(C)C)CC4)cc3c2C(C)C)cn2ccnc12 [Example 433, 2-(4-(3-isopropyl-2-(8-methoxyimidazo[1,2-a]pyridin-6-yl)-1H-indol-5-yl)piperidin-1-yl)-N,N-dimethylacetamide]	< 100	< 100	100 to 1000
Cc1cc(-c2[nH]c3ccc(C4CCN(C(=O)CCN5CCC(F)(F)CC5)CC4)cc3c2C(C)C)cn2nnnc12 [Example 628, 3-(4,4-difluoropiperidin-1-yl)-1-(4-(3-isopropyl-2-(8-methyltetrazolo[1,5-a]pyridin-6-yl)-1H-indol-5-yl)piperidin-1-yl)propan-1-one]	< 100	< 100	1000 to 50000
